SMILES strings stand for the structures.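 Five compound concentrations were applied to cells in 96-well plates for 48 hours; endpoints were derived by simple linear interpolation of the resulting dose-response curve. GI50 = concentration required for 50% inhibition of growth. TGI denotes the concentration required for complete inhibition of growth.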

Some test systems named below: SK-MEL-2 melanoma; HL-60(TB) leukemia; HCC-2998 colon; MCF7 breast; TK-10 renal; LOX IMVI melanoma; RXF 393 renal; SK-MEL-28 melanoma; OVCAR-3 ovarian; UACC-62 melanoma.
Common to all, as to assay: NCI-60 cell line screen, 48 h

For `CCO/C(O)=C(/C(=N)N1CCOCC1)C(=O)Nc1cccc(C(F)(F)F)c1`, the TGI in the assay on SK-MEL-2 melanoma, in the assay with HL-60(TB) leukemia, in the assay on HCC-2998 colon, in the assay on MCF7 breast, in the assay on TK-10 renal and in the assay on LOX IMVI melanoma was more than 100 µM in each case. The TGI with RXF 393 renal, in the assay on SK-MEL-28 melanoma, in the assay with OVCAR-3 ovarian and with UACC-62 melanoma was more than 100 µM in each case.

Regarding `C1=N[C@]23C(=N[C@H](N=C2NCc2ccco2)[C@]24N=CNC2=N[C@H]3N=C4NCc2ccco2)N1`, the GI50 in the assay with SK-MEL-2 melanoma, in the assay with HL-60(TB) leukemia, with HCC-2998 colon, in the assay with MCF7 breast, in the assay with TK-10 renal and in the assay with LOX IMVI melanoma was more than 100 µM throughout. Besides, the GI50 in the assay with RXF 393 renal, with SK-MEL-28 melanoma, in the assay on OVCAR-3 ovarian and in the assay with UACC-62 melanoma was more than 100 µM each time. For the same compound, the TGI in the assay with SK-MEL-2 melanoma, in the assay with HL-60(TB) leukemia, in the assay on HCC-2998 colon, in the assay on MCF7 breast, in the assay with TK-10 renal and with LOX IMVI melanoma was more than 100 µM each time. For the same compound, the TGI with RXF 393 renal, in the assay on SK-MEL-28 melanoma, in the assay with OVCAR-3 ovarian and with UACC-62 melanoma was more than 100 µM each time.

For `COc1ccccc1C1C2=C(COC2=O)Oc2cc3c(cc21)OCO3` (stereo not drawn), the TGI in the assay with SK-MEL-2 melanoma was 99.7 µM; in the assay on HL-60(TB) leukemia it was 11.6 µM; in the assay on HCC-2998 colon, more than 37.6 µM; in the assay with MCF7 breast it was more than 89.9 µM; in the assay on TK-10 renal, more than 90.5 µM; in the assay on LOX IMVI melanoma it was more than 100 µM. Also, the TGI with RXF 393 renal was 6.13 µM; in the assay with SK-MEL-28 melanoma, more than 76 µM; with OVCAR-3 ovarian, 16.7 µM; in the assay with UACC-62 melanoma it was more than 100 µM.

For the compound `CC[C@H](C)[C@H](NC(=O)N(CCC#N)CCN(CCN(C(=O)N[C@@H](Cc1ccccc1)C(=O)OC)c1ccccc1)C(=O)N[C@H](C(=O)OC)C(C)C)C(=O)OC`, the TGI in the assay on SK-MEL-2 melanoma was found to be 43.4 µM; with HL-60(TB) leukemia, 4.24 µM; with HCC-2998 colon it was 39.5 µM; in the assay on MCF7 breast, 74.6 µM; with TK-10 renal, 38.5 µM; in the assay on LOX IMVI melanoma, 37.4 µM. The TGI in the assay on RXF 393 renal worked out at 37.8 µM; in the assay with SK-MEL-28 melanoma, 29.7 µM; in the assay on OVCAR-3 ovarian, 39.7 µM; in the assay with UACC-62 melanoma, 28.6 µM.

As to `CCOC(=O)NN(C(=O)OCC)c1ccc(N=Nc2ccc(OC)cc2)n1C`, the TGI was 29.4 µM in the assay on SK-MEL-2 melanoma; 50.5 µM with HL-60(TB) leukemia; 83.6 µM with HCC-2998 colon; 31.8 µM with MCF7 breast; more than 100 µM in the assay on TK-10 renal; 41.5 µM with LOX IMVI melanoma. In addition, the TGI in the assay with RXF 393 renal was more than 100 µM; with OVCAR-3 ovarian, 53.2 µM; in the assay with UACC-62 melanoma, more than 100 µM.

Turning to `O=c1oc2ccc([N+](=O)[O-])cc2nc1/C=C(\O)c1ccccc1`, the TGI with SK-MEL-2 melanoma is 98.2 µM; with HL-60(TB) leukemia it was more than 100 µM; in the assay with HCC-2998 colon, more than 100 µM; in the assay on MCF7 breast, more than 100 µM; in the assay on TK-10 renal, 93.4 µM; with LOX IMVI melanoma, more than 100 µM. The TGI in the assay on RXF 393 renal, with SK-MEL-28 melanoma, in the assay with OVCAR-3 ovarian and with UACC-62 melanoma was more than 100 µM throughout.

With `COc1ccccc1-n1cnc2c1NC(C)(C)N=C2C(N)=O`, the TGI in the assay with SK-MEL-2 melanoma, in the assay with HL-60(TB) leukemia, in the assay with HCC-2998 colon, in the assay with MCF7 breast, in the assay on TK-10 renal and in the assay on LOX IMVI melanoma was more than 100 µM throughout. Further, the TGI in the assay on RXF 393 renal, in the assay on SK-MEL-28 melanoma, in the assay with OVCAR-3 ovarian and in the assay on UACC-62 melanoma was more than 100 µM throughout.

As to `O=C(N/N=C(/COc1ccccc1)N=Cc1ccncc1)c1ccncc1`, the TGI with SK-MEL-2 melanoma, in the assay on HL-60(TB) leukemia, in the assay with HCC-2998 colon, with MCF7 breast, in the assay with TK-10 renal and in the assay with LOX IMVI melanoma was more than 100 µM each time. The TGI with RXF 393 renal, in the assay on SK-MEL-28 melanoma, in the assay with OVCAR-3 ovarian and in the assay with UACC-62 melanoma was more than 100 µM in each case.

For `CN(C)c1ccc(/C=C/C(=O)c2cc(C(C)(C)C)c(O)c(C(C)(C)C)c2)cc1`, the TGI in the assay with SK-MEL-2 melanoma is more than 100 µM; with HL-60(TB) leukemia it was more than 24.4 µM; in the assay on HCC-2998 colon, 3.67 µM; in the assay on MCF7 breast, more than 100 µM; in the assay with TK-10 renal it was more than 43.1 µM; with LOX IMVI melanoma, more than 100 µM. Further, the TGI with RXF 393 renal was 0.511 µM; with SK-MEL-28 melanoma it was more than 100 µM; in the assay on UACC-62 melanoma it was more than 100 µM.

For `O=C1CC(c2ccc(Cl)cc2)C2(C(=O)NC(=S)NC2=O)C(c2ccc(Cl)cc2)C1` (stereo not drawn), the TGI is 36.1 µM in the assay on SK-MEL-2 melanoma; 57.2 µM in the assay on HL-60(TB) leukemia; 43.3 µM in the assay on HCC-2998 colon; 32.1 µM with MCF7 breast; more than 100 µM in the assay on TK-10 renal; more than 100 µM with LOX IMVI melanoma. In addition, the TGI was 29.4 µM in the assay with RXF 393 renal, 30.6 µM with SK-MEL-28 melanoma, 33.9 µM in the assay with OVCAR-3 ovarian and 34.4 µM in the assay with UACC-62 melanoma.

On to `C=C1C(=O)OC2C1CCC(=C)C1CC(O)C(=C)C12` (stereo not drawn), for which the TGI with SK-MEL-2 melanoma came out at 32.7 µM; in the assay with HL-60(TB) leukemia, 5.79 µM; with HCC-2998 colon, 27.9 µM; in the assay with MCF7 breast, 25.5 µM; in the assay on TK-10 renal, 20.6 µM; with LOX IMVI melanoma, 20.9 µM. Moreover, the TGI was 29.9 µM with RXF 393 renal, 32 µM in the assay on SK-MEL-28 melanoma, 27.9 µM in the assay on OVCAR-3 ovarian and 26.6 µM in the assay with UACC-62 melanoma.

As for `COc1cccc(N/C(C)=C2/CCOC2=O)c1`, the TGI in the assay with SK-MEL-2 melanoma, with HL-60(TB) leukemia, in the assay with HCC-2998 colon, in the assay on MCF7 breast, with TK-10 renal and in the assay on LOX IMVI melanoma was more than 10 µM throughout. In addition, the TGI with RXF 393 renal, in the assay on SK-MEL-28 melanoma, in the assay on OVCAR-3 ovarian and in the assay on UACC-62 melanoma was more than 10 µM each time.

The record behind these values is PubChem BioAssay (NCI).
